One experiment concerns the target T1, Aiolos (Homo sapiens, UniProt Q96SW2+Q9UKT9).
T1 construct: analyzed by flow cytometry to assess intracellular levels of Ikaros and Aiolos in CAR+ T cells; endogenous in cells; host or cells: primary human CD4+ and CD8+ T cells from healthy donors, lentivirally transduced with an anti-CD19 CAR
In words: Aiolos degradation in stimulated anti-CD19 CAR T cells (flow cytometry MFI). Type of experiment: cell-based. From the text:
(§1) T cell compositions containing anti-CD19 CAR-expressing T cells were generated from leukapheresis samples from five healthy human adult donors by a process that included immunoaffinity-based selection of T cells by separately selecting CD4+ and CD8+ cells from the samples, resulting in two compositions enriched for CD4+ and CD8+ cells, respectively, per donor. Cells of the enriched CD4+ and CD8+ compositions were separately activated with anti-CD3/anti-CD28 beads and subjected to lentiviral transduction with a vector encoding an anti-CD19 CAR. The anti-CD19 CAR contained an anti-CD19 single-chain variable fragment (scFv) derived from a murine antibody (variable region derived from FMC63), an immunoglobulin-derived spacer, a transmembrane domain derived from CD28, a costimulatory region derived from 4-1BB, and a CD3-zeta intracellular signaling domain. The expression construct in the viral vector further contained sequences encoding a surrogate surface marker for CAR expression, which was separated from the CAR-encoding sequence by a T2A ribosome skip sequence. Transduced populations then were separately incubated in the presence of stimulating reagents for cell expansion. Expanded CD4+ and CD8+ cells were formulated and cryopreserved separately and stored.
(§2) Prior to use, the cryopreserved CD4+ and CD8+ engineered cell compositions were thawed and combined at approximately a 1:1 CD4:CD8 ratio for each donor. Cells of the combined composition were then stimulated at 37° C. with 5% CO2 for 24 hours with 30 µg/mL of a CAR-specific anti-idiotypic antibody (see, e.g., WO2018/023100).
(§3) Following incubation, the stimulated cells were stained with antibodies and analyzed by flow cytometry to assess intracellular levels of Ikaros and Aiolos in CAR+ T cells, as measured by median fluorescence intensity (MFI). MFI values for Ikaros and Aiolos were normalized and calculated as a percentage relative to vehicle control.
(In general: In flow cytometry, cells or beads pass a laser one at a time.)

The target of the next experiment is T2, Ikaros (Homo sapiens, UniProt Q13422+Q96SW2).
T2 construct: analyzed by flow cytometry to assess intracellular levels of Ikaros and Aiolos in CAR+ T cells; endogenous in cells; host or cells: primary human CD4+ and CD8+ T cells from healthy donors, lentivirally transduced with an anti-CD19 CAR
T2 sequence (Q13422 whole entry): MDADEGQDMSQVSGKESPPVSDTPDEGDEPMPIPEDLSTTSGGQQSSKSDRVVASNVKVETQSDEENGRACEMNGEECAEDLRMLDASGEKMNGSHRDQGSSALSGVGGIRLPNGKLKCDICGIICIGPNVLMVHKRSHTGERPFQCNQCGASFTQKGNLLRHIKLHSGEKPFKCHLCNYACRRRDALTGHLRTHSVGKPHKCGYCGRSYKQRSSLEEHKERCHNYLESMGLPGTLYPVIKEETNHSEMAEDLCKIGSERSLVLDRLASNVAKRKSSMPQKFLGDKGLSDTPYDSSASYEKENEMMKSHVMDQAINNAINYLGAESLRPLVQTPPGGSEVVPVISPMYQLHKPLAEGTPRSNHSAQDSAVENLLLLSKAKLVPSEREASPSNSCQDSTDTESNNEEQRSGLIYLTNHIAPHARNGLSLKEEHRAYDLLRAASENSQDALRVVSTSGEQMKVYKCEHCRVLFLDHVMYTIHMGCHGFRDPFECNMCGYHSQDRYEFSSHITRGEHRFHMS
T2 sequence (Q96SW2 whole entry): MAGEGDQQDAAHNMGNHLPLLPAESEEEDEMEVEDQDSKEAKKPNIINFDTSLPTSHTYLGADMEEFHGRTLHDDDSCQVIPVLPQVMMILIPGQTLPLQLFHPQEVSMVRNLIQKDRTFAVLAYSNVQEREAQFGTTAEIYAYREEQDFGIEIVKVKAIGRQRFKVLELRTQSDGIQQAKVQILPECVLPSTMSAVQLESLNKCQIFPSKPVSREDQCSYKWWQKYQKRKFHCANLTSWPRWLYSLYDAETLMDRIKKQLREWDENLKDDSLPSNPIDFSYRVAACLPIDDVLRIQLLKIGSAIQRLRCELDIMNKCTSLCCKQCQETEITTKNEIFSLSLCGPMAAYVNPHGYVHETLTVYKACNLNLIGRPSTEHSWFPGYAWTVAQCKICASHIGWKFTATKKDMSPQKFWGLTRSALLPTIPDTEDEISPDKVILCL
T2 sequence (Q16531 whole entry partner): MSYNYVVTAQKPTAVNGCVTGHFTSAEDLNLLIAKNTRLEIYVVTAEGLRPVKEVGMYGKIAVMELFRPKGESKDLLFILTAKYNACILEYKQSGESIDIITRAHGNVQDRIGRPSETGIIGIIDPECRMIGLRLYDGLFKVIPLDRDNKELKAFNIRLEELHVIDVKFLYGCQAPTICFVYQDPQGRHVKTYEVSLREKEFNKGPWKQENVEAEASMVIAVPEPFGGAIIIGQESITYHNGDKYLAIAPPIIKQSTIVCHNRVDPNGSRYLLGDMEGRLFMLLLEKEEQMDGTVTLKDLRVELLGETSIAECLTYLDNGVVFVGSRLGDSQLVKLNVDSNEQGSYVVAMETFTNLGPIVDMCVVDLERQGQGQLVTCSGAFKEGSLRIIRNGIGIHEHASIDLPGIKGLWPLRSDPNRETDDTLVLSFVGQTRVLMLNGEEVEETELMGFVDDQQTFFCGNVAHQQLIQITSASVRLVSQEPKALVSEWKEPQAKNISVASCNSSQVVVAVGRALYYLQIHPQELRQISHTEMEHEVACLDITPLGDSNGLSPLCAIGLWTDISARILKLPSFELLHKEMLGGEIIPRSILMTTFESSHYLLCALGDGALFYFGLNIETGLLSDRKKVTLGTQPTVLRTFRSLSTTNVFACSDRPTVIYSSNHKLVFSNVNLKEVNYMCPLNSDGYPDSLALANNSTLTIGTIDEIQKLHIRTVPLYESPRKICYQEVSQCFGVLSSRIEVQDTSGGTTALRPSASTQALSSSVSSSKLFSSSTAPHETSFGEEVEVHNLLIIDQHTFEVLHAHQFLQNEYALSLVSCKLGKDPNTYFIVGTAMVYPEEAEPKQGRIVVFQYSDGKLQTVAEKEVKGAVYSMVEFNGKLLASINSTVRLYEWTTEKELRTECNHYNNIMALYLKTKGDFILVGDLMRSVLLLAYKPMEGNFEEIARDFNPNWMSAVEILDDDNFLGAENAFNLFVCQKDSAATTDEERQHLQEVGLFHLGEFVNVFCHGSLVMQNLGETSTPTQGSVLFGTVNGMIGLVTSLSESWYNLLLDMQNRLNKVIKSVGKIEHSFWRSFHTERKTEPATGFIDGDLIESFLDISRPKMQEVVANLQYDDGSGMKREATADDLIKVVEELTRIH
In words: Ikaros degradation in stimulated anti-CD19 CAR T cells (flow cytometry MFI). Type of experiment: cell-based.
Text: as §1, §2, §3

A further experiment has as its system anti-CD19 CAR T cells. Description: Viability of anti-CD19 CAR T cells stimulated with anti-idiotypic antibody (live/dead dye). The note with it: Day 3 of culture; 3 or 30 μg/mL anti-idiotypic antibody; three donors. Format: cell-based, human. The procedure:
Anti-CD19 CAR-expressing T cell compositions were generated from three different healthy donors as described in Example 1. Prior to use, cryopreserved CD4+ and CD8+ engineered cell compositions were thawed and combined at approximately a 1:1 CD4:CD8 ratio.
Following incubation, stimulated CAR T cells were harvested, washed twice in media, and assessed.
Viability was assessed at Day 3 of culture by flow cytometry using a live/dead cell dye. As shown in FIG. 2A for the three donors (mean±SEM), the compounds had no effect on cell viability when stimulation was carried out either with 3 μg/mL of anti-idiotypic antibody (left panel) or with 30 μg/mL of anti-idiotypic antibody (right panel).

For experiment [1], the system named is Granta-519 lymphoma tumor spheroids. In words: Chronic stimulation with concurrent treatment, re-challenge with tumor spheroids. Format: cell-based. The procedure:
To simulate conditions of chronic stimulation, anti-CD19 CAR-expressing T cells, produced as described in Example 1, were incubated with plate-bound CAR-specific anti-idiotypic antibody (see, e.g., WO2018/023100) and incubated at 37° C. for a period of six days. […] For instance, CAR T cells that were re-challenged with CD19+ tumor cells following the six-day stimulation had reduced IFNγ and IL-2 cytokine production (FIG. 3A) and reduced cytolytic function (FIG. 3B) compared to freshly thawed CAR T cells not subjected to the six-day stimulation.
The ability of Compound C to block or reduce this CAR T cell hypofunctionality following chronic stimulation was assessed. To do so, engineered CAR T cells were concurrently treated with Compound C, Compound 2, or a vehicle control during the six-day stimulation. Stimulated CAR T cells were then harvested, washed twice in media, and re-challenged with Granta-519 lymphoma tumor spheroids (that had been transduced with IncuCyte NucLight Red) in the absence of Compound C, after which cytolytic activity was assessed by loss of red fluorescence over time and averaged measurement of tumor spheroid size at various times following co-culture with CAR-T cells. Cytokine production, Ikaros expression, and gene expression of the CAR T Cells also were assessed.
FIGS. 3D and 3E show the volume of tumor spheroids co-cultured with CAR T cells that were stimulated in the presence of Compound C after chronic stimulation. As shown in FIG. 3D and FIG. 3E, cytolytic activity during re-challenge was improved by treatment with Compound C at a 1 nM concentration during stimulation (**** P<0.0001).

The test system is the same in experiment [2]. In words: Concentration levels: tumor cell number during re-challenge, concurrent or rescue treatment. Format: cell-based. The procedure:
Different concentrations of Compound C were tested for their effects on cytolytic function of CAR T cells following chronic stimulation. CAR T cells were treated with various concentrations of Compound C either during or after chronic stimulation.
Anti-CD19 CAR-expressing T cells, produced as described in Example 1, were chronically stimulated as described in Example 3 (with Compound C present during chronic stimulation), then re-challenged with Granta-519 lymphoma tumor spheroids in the absence of Compound C (concurrent treatment group). In addition, anti-CD19 CAR-expressing T cells were chronically stimulated as described in Example 4 (with Compound C absent during chronic stimulation), then re-challenged with Granta-519 lymphoma tumor spheroids in the presence of Compound C (rescue treatment group). During re-challenge, cytolytic activity was assessed by tumor cell number at various times during co-culture with CAR-T cells.
In both treatment conditions, tumor cell number was reduced compared to control conditions for CAR T cells treated with Compound C at a 0.001 μM concentration. Also in both treatment groups, tumor cell number was higher compared to control conditions for CAR T cells treated with Compound C at 0.01 μM and 0.1 μM concentrations.

The mark [3] stands for this setting: approximately 10^-1 to 10^4 nM, 24 hours.
[4] abbreviates: at all compound concentration levels tested.

T1 sequence (Q9UKT9 whole entry): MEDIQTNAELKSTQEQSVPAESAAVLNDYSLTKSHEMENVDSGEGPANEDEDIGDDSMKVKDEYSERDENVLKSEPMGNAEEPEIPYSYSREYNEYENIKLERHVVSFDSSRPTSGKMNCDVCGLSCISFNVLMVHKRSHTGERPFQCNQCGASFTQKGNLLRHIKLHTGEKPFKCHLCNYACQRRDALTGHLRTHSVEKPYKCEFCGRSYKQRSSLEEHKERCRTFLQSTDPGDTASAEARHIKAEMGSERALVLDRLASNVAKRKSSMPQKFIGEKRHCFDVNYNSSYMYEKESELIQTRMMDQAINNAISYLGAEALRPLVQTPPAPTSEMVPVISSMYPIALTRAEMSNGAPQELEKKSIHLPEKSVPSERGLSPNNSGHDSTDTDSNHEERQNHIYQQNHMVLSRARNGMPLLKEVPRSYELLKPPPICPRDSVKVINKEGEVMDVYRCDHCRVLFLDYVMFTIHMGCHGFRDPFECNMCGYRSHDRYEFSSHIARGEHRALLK
T1 sequence (Q96SW2 whole entry): as the sequence (Q96SW2 whole entry) above
T1 sequence (Q16531 whole entry partner): as the sequence (Q16531 whole entry partner) above

Consider `O=C1CC[C@H](N2C(=O)c3cccc(NCc4ccc(CN5CC(N6CCOCC6)C5)cc4F)c3C2=O)C(=O)N1` [Compound C, (S)-2-(2,6-dioxopiperidin-3-yl)-4-((2-fluoro-4-((3-morpholinoazetidin-1-yl)methyl)benzyl)amino)isoindoline-1,3-dione], for which the DC50 came out at 0.25 nM on Aiolos (anti-CD19 CAR T cells, 24 hours stimulation with anti-idiotypic antibody, concentration reducing MFI to 50%, average of five donors, read-out: Average EC50 Values (95% Confidence Interval), Aiolos) and 0.31 nM at Ikaros (anti-CD19 CAR T cells, 24 hours stimulation with anti-idiotypic antibody, concentration reducing MFI to 50%, average of five donors, read-out: Average EC50 Values (95% Confidence Interval), Ikaros). Further, the “intracellular Aiolos expression (MFI relative to vehicle control)” value on Aiolos (setting [3]) was “Concentration-dependent decreases”. The “Aiolos expression compared with Compound 2 or Compound 1” value on Aiolos (setting [4]) is reported as “lower”. Further, on Ikaros (setting [3]), the “intracellular Ikaros expression (MFI relative to vehicle control)” value is “Concentration-dependent decreases”. Further, the “Ikaros expression compared with Compound 2 or Compound 1” value on Ikaros (setting [4]) is on record as “lower”. The “cell viability (percentage of live CAR T cells)” value in the experiment with anti-CD19 CAR T cells is listed as “without affecting CAR T cell viability”. Also, the “IFNγ production in supernatant five days after re-challenge” value in experiment [1] (1 nM concurrently during chronic stimulation, P<0.0001) is “improved IFNγ production”; in experiment [1] (10 nM during chronic stimulation, P<0.001, lesser extent than 1 nM) it was “increased IFNγ production”. For the same compound, in experiment [1] (1 nM during six-day chronic stimulation (concurrent), P<0.0001), the “cytolytic activity during re-challenge (tumor spheroid volume)” value is “improved”. Besides, the “tumor size at day 9 of co-culture” value in experiment [1] (10 nM during six-day chronic stimulation (concurrent), P<0.05, lesser extent than 1 nM) is given as “reduced tumor size”. The “tumor cell number compared to control conditions” value in experiment [2] (concurrent treatment, 0.001 μM) is given as “reduced”; in experiment [2] (concurrent treatment, 0.01 μM), “higher”; in experiment [2] (concurrent treatment, 0.1 μM) it was “higher”; in experiment [2] (rescue treatment, 0.001 μM) it was “reduced”; in experiment [2] (rescue treatment, 0.01 μM), “higher”; in experiment [2] (rescue treatment, 0.1 μM), “higher”.

The values above are taken from patent publication US20240197871A1, “COMBINATION OF A CAR T CELL THERAPY AND AN IMMUNOMODULATORY COMPOUND FOR TREATMENT OF LYMPHOMA” (Juno Therapeutics, Inc., priority 2021, published 2024).
